Source: patent US10981932B2, “Macrocyclic indole derivatives” (Bayer Aktiengesellschaft, priority 2016, dated 2021)
Structures can show the parent of a compound that is named as a salt. Where two headings read alike, the source gives them in different places.

How the values were obtained:
SUDHL10 [1] = test: Induction of caspase-3/7 activity (Caspase-Glo 3/7), SUDHL10; assay type: cell-based; settings: caspase-3/7 induction, SUDHL10 cells, 3 h treatment, median
How it was run: (§1)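 Caspase-Glo 3/7 luminescence measured after 3 h compound exposure at 37 °C in SUDHL10 and SUDHL5 cells. EC50 values come from background-corrected signals, with curve bottom set to 1 and plateau set to maximal induction by the reference compound.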

SUDHL5 [2] = test: Anti-proliferative effect (CellTiter-Glo, 72 h), SUDHL5; assay type: cell-based; settings: SUDHL5 cells, antiproliferation, 72 h incubation, median, read-out: Antiproli SUDHL5 [M] (median)
How it was run: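 Anti-proliferative activity is derived from ATP-based luminescence (CellTiter-Glo) in cells exposed to compound for 72 h at 37 °C, set against a time zero plate read at seeding.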

SUDHL5 [3] = test: Induction of caspase-3/7 activity (Caspase-Glo 3/7), SUDHL5; assay type: cell-based; settings: caspase-3/7 induction, SUDHL5 cells, 3 h treatment, median
How it was run: as §1

MCL-1 = MCL-1 (Homo sapiens, UniProt Q07820); test: Protein-protein interaction assay MCL-1/Noxa BH3 peptide (MCL-1 assay), TR-FRET; assay type: binding; settings: MBP-MCL-1 / Noxa BH3-derived peptide, median
How it was run: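 MBP-MCL-1 (1 nM final) was preincubated 10 min at 22 °C with compounds (11 concentrations, 0.1 nM–20 μM, duplicates) in Tris pH 7 buffer with NaCl, KF, Tween-20, DTT and BGG. After 1 h at 22 °C in the dark plus overnight at 4 °C, anti-MBP Eu-cryptate/streptavidin-XL665 TR-FRET was read; IC50 came from a 4-parameter fit.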

SUDHL10 [4] = test: Induction of cytotoxicity (CellTiter-Glo, 5 h), SUDHL10
[5] = Homo sapiens, SU-DHL10, 5 h, read-out: Cytotox SUDHL10 [M] (median), SUDHL10 cells, cytotoxicity induction, CellTiter-Glo, 5 h incubation, median
[6] = read-out: Cytotox SUDHL10 [M] (median), SUDHL10 cells, cytotoxicity induction, CellTiter-Glo, 5 h incubation, median

Sequence of MCL-1 (Q07820 whole entry): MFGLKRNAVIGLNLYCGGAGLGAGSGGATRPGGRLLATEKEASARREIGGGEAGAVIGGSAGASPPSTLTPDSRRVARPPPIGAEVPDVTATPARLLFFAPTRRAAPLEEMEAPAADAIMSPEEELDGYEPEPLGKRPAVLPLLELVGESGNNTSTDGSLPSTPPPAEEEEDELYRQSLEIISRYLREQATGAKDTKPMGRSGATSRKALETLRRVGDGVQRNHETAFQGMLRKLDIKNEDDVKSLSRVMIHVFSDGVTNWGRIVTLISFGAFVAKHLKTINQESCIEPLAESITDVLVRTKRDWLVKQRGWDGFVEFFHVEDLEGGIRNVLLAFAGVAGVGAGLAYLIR

| EC50 (SUDHL10 [1]; Homo sapiens, SU-DHL10, 3 h) [µM] | IC50 (SUDHL5 [2]; Homo sapiens, SU-DHL-5, 72 h) [M] | EC50 (SUDHL5 [3]; Homo sapiens, SU-DHL-5, 3 h) [µM] | IC50 (MCL-1) [µM] | EC50 (SUDHL10 [1]) [µM] | EC50 (SUDHL5 [3]) [µM] | IC50 (SUDHL5 [2]) [M] | Compound | IC50 (SUDHL10 [4]; [5]) [M] | IC50 (SUDHL10 [4]; [6]) [M] |
| --- | --- | --- | --- | --- | --- | --- | --- | --- | --- |
| 7.51 | 2.63e-06 | 3.94 | 0.00328 |  |  |  | Cc1c2c(nn1C)COCCCCn1c(C(=O)O)c(CCCOc3cccc4ccccc34)c3cccc-2c31 (racemic) [Example 1-36, (rac)-2,3-dimethyl-7-[3-(naphthalen-1-yloxy)propyl]-2,10,11,12,13,15-hexahydropyrazolo[4′,3′:9,10][1,6]oxazacycloundecino[8,7,6-hi]indole-8-carboxylic Acid] | 1.4e-05 |  |
| > 33 | 6.09e-06 | 14.7 | 0.00896 | 31.9 |  |  | Cc1nn(C)c2c1-c1cccc3c(CCCOc4cccc5ccccc45)c(C(=O)O)n(c13)CCCCOCC2 (racemic) [Example 017, (rac)-1,3-dimethyl-7-[3-(1-naphthyloxy)propyl]-10,11,12,13,15,16-hexahydro-1H-pyrazolo[4′,3′:9,10][1,6]oxazacyclododecino[8,7,6-hi]indole-8-carboxylic Acid] | > 3.3e-05 |  |
| 24.8 | 1.11e-05 | 7.47 | 0.00501 |  |  |  | Cc1ccc2c(CCCOc3cccc4c3CCCC4)c(C(=O)O)n3c2c1-c1c(C)nn(C)c1COCCCC3 (racemic) [Example 039, (rac)-1,3,4-trimethyl-7-[3-(5,6,7,8-tetrahydronaphthalen-1-yloxy)propyl]-110,11,12,13,15-hexahydropyrazolo[4′3′:9,10][1,6]oxazacycloundecino[8,7,6-hi]indole-8-carboxylic Acid] | 2.97e-05 |  |
|  |  |  | 0.0197 |  |  |  | CC(C)c1c2c(nn1C)CN(C)CCCn1c(C(=O)O)c(CCCOc3cccc4ccccc34)c3cccc-2c31 (racemic) [Example 113, (rac)-7,10-dimethyl-1-[3-(naphthalen-1-yloxy)propyl]-11-(propan-2-yl)-4,5,6,7,8,10-hexahydropyrazolo[3′,4′:7,8][1,5]diazecino[9,10,1-hi]indole-2-carboxylic Acid] | 7.9e-06 |  |
| 7.3 | 1.39e-06 | 4.08 | 0.00727 |  |  |  | CCc1c2c(nn1C)CN(C)CCCn1c(C(=O)O)c(CCCOc3cccc4ccccc34)c3cccc-2c31 (racemic) [Example 141, (rac)-11-ethyl-7,10-dimethyl-1-[3-(1-naphthyloxy)propyl]-4,5,6,7,8,10-hexahydropyrazolo[3′,4′:7,8][1,5]diazecino[9,10,1-hi]indole-2-carboxylic Acid] | 7.87e-06 |  |
| 3.91 | 1.33e-06 | 2.85 | 0.00334 |  |  |  | CCc1c2c(nn1C)CN(C)CCCn1c(C(=O)O)c(CCCOc3cccc4ccccc34)c3ccc(C)c-2c31 (racemic) [Example 144, (rac)-11-ethyl-7,10,12-trimethyl-1-[3-(1-naphthyloxy)propyl]-4,5,6,7,8,10-hexahydropyrazolo[3′,4′:7,8][1,5]diazecino[9,10,1-hi]indole-2-carboxylic Acid] | 5.02e-06 |  |
| 5.12 | 7.96e-07 | 1.7 | 0.0048 |  |  |  | CCc1c2c(nn1C)COCCCCn1c(C(=O)O)c(CCCOc3cccc4ccccc34)c3ccc(C)c-2c31 (racemic) [Example 153, (rac)-3-Ethyl-2,4-dimethyl-7-[3-(1-naphthyloxy)propyl]-2,10,11,12,13,15-hexahydropyrazolo[4′,3′:9,10][1,6]oxazacycloundecino[8,7,6-hi]indole-8-carboxylic Acid] | 5.1e-06 |  |
| 20.3 | 9.62e-06 |  | 0.00479 |  | 8.87 |  | CC(C)OCc1nn(C)c2c1-c1cccc3c(CCCOc4cccc5ccccc45)c(C(=O)O)n(c13)CCCCN(C)C2 (single isomer, unassigned) [Example 1-74, 1,14-dimethyl-7-[3-(naphthalen-1-yloxy)propyl]-3-[(propan-2-yloxy)methyl]-10,11,12,13,14,15-hexahydro-1H-pyrazolo[3′,4′:8,9][1,6]diazacycloundecino[10,11,1-hi]indole-8-carboxylic Acid] |  | 1.42e-05 |
|  |  |  | 0.00303 | 1.82 | 1.17 | 1.36e-06 | CN1CCCn2c(C(=O)O)c(CCCOc3cccc4ccccc34)c3cccc(c32)-c2c(COc3ccc(N4CCN(S(=O)(=O)N(C)C)CC4)cc3)nn(C)c2C1 (single isomer, unassigned; enantiomer 1) [Example 1-15, (+)-11-({4-[4-(dimethylsulfamoyl)piperazin-1-yl]phenoxy}methyl)-7,9-dimethyl-1-[3-(naphthalen-1-yloxy)propyl]-4,5,6,7,8,9-hexahydropyrazolo[3′,4′:7,8][1,5]diazecino[9,10,1-hi]indole-2-carboxylic Acid (Enantiomer 1)] |  | 1.94e-06 |
|  |  |  | 0.000787 | 2.21 | 1.56 | 1.58e-06 | Cn1nc(COc2ccc(N3CCN(C(=O)C4CC4)CC3)cc2)c2c1COCCCCn1c(C(=O)O)c(CCCOc3cccc4ccccc34)c3cccc-2c31 (single isomer, unassigned; enantiomer 1) [Example 1-22, 3-({4-[4-(cyclopropylcarbonyl)piperazin-1-yl]phenoxy}methyl)-1-methyl-7-[3-(naphthalen-1-yloxy)propyl]-1,10,11,12,13,15-hexahydropyrazolo[4′,3′:9,10][1,6]oxazacycloundecino[8,7,6-hi]indole-8-carboxylic Acid (Enantiomer 1)] |  | 2.7e-06 |
|  |  |  | 0.00462 | 7.27 | 4.33 | 3.12e-06 | Cc1nn(C)c2c1-c1cccc3c(CCCOc4cccc5ccccc45)c(C(=O)O)n(c13)CCCN(C)C2 (single isomer, unassigned; enantiomer 1) [Example 1-31, 7,9,11-trimethyl-1-[3-(naphthalen-1-yloxy)propyl]-4,5,6,7,8,9-hexahydropyrazolo[3′,4′:7,8][1,5]diazecino[9,10,1-hi]indole-2-carboxylic Acid-N-ethylethanamine Salt (Enantiomer 1)] |  | 1.61e-05 |
|  |  |  | 0.00172 | 3.84 | 2.44 | 2.54e-06 | Cc1c2c(nn1C)COCCCCn1c(C(=O)O)c(CCCOc3cccc4ccccc34)c3cccc-2c31 (single isomer, unassigned; enantiomer 1) [Example 1-37, (+)-2,3-dimethyl-7-[3-(naphthalen-1-yloxy)propyl]-2,10,11,12,13,15-hexahydropyrazolo[4′,3′:9,10][1,6]oxazacycloundecino[8,7,6-hi]indole-8-carboxylic Acid (Enantiomer 1)] |  | 8.41e-06 |
| 11.1 | 9.58e-06 | 6.57 | 0.00799 |  |  |  | CN1CCCn2c(C(=O)O)c(CCCOc3cccc4ccccc34)c3cccc(c32)-c2c(CN3CCOCC3)nn(C)c2C1 (single isomer, unassigned; enantiomer 1) [Example 1-43, (+)-7,9-dimethyl-11-(morpholin-4-ylmethyl)-1-[3-(naphthalen-1-yloxy)propyl]-4,5,6,7,8,9-hexahydropyrazolo[3′,4′:7,8][1,5]diazecino[9,10,1-hi]indole-2-carboxylic Acid (Enantiomer 1)] |  | 1.48e-05 |
|  |  |  | 0.00143 | 1.74 | 0.776 | 9.89e-07 | CN1CCCn2c(C(=O)O)c(CCCOc3cccc4ccccc34)c3cccc(c32)-c2c(COc3ccc(N4CCN(S(C)(=O)=O)CC4)cc3)nn(C)c2C1 (single isomer, unassigned; enantiomer 1) [Example 1-46, (+)-7,9-dimethyl-11-({4-[4-(methylsulfonyl)piperazin-1-yl]phenoxy}methyl)-1-[3-(naphthalen-1-yloxy)propyl]-4,5,6,7,8,9-hexahydropyrazolo[3′,4′:7,8][1,5]diazecino[9,10,1-hi]indole-2-carboxylic Acid (Enantiomer 1)] |  | 2.29e-06 |
|  |  |  | 0.000862 | 5.16 | 1.52 | 3.65e-06 | Cc1nn(C)c2c1-c1cccc3c(CCCOc4cccc5cc(F)ccc45)c(C(=O)O)n(c13)CCCCOC2 (single isomer, unassigned; enantiomer 1) [Example 019, 7-{3-[(6-fluoronaphthalen-1-yl)oxy]propyl}-1,3-dimethyl-1,10,11,12,13,15-hexahydropyrazolo[4′,3′:9,10][1,6]oxazacycloundecino[8,7,6-hi]indole-8-carboxylic Acid-N-ethylethanamine Salt (Enantiomer 1)] |  | 3.76e-06 |
